Laboratory results from US10662146B2, “Prodrugs of fencamfamine” (Praxis Bioresearch, LLC, priority 2015, dated 2020).
Values joined by “and” are separate entries in the source; they are usually repeats but may differ in a detail not shown here. Identical values can stand only once. Like-named read-outs stand apart in the source and are kept apart here.

Test: Single dose intravenous PK study in male Sprague Dawley rats (plasma by LC-MS/MS)
Format: in vivo
Details: for AUC(0-inf): read-out: AUCinf of PRX-P5-006; for AUC(0-t): read-out: AUClast of PRX-P5-006; for clearance: read-out: CL of PRX-P5-006; for AUC: read-out: IV PK Parameters AUC, Prodrug; for C0: read-out: C0 of PRX-P5-006
Summary of the method: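 Adult male Sprague Dawley rats (8-10 weeks) received IV bolus prodrug at 2 mg/kg PRX-002-equivalent unless specified, with 10 or 15 mg/kg in some studies; formulations in PEG 400/HPβCD/water (±DMSO), freshly prepared. Retro-orbital K2EDTA plasma sampled over 24 h; fencamfamine quantified by LC-MS/MS, AUC versus unconjugated fencamfamine.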

[1] = PRX-P5-006 IV 2 mg/kg b.w., individual animals, 2 mg/kg
[2] = PRX-P5-006 IV 2 mg/kg, mean, 2 mg/kg
[3] = male, Sprague Dawley, rat, plasma, iv, 2 mg/kg, PRX-P5-006 IV 2 mg/kg, mean
[4] = male, Sprague-Dawley, rat, plasma, iv, 2 mg/kg, PRX-P5-006 IV 2 mg/kg b.w., individual animals

Q: Which results are given for `CCCCCCCCCCCCCCCCCC(=O)OC(C)OC(=O)N(CC)C1C2CCC(C2)C1c1ccccc1` (single isomer, unassigned) [PRX-P5-006, N-(1-Octadecanoyloxyethoxycarbonyl)-(−)-N-ethyl-3-phenylbicyclo[2.2.1]heptan-2-amine]?
A: AUC% extrap of PRX-P5-006 [1]: 5.16% and 3.49% and 11.16%; AUCinf of PRX-P5-006 [1]: 3977.39 ng·h/mL and 4119.23 ng·h/mL; AUClast of PRX-P5-006 [1]: 3838.58 ng·h/mL and 3659.58 ng·h/mL; C0 of PRX-P5-006 [1]: 32467.12 ng/mL and 21202.31 ng/mL; CL of PRX-P5-006 [1]: 8.38 mL/min/kg and 8.09 mL/min/kg; Cmax of PRX-P5-006 [1]: 8662.3 ng/mL and 7404.71 ng/mL; MRTlast of PRX-P5-006 [1]: 2.7 h and 0.93 h and 3.31 h; T1/2 of PRX-P5-006 [1]: 7.54 h and 2.06 h and 9.32 h; Vss of PRX-P5-006 [1]: 1.56 L/kg and 0.61 L/kg and 3.46 L/kg; AUC% extrap of PRX-P5-006 [2]: 6.602 ± 4.0330% and 6.602%; T1/2 of PRX-P5-006 [2]: 6.304 h; Level of intact PRX-P5-006 in plasma, IV versus oral (PRX-P5-006 administered IV (FIGS. 5A, 5B)): Much higher level of intact PRX-P5-006; Cmax (male, Sprague Dawley, rat, plasma, iv, 2 mg/kg, IV 2 mg/kg [equivalent to PRX-002 (−)], analyte: prodrug in plasma, mean, read-out: IV PK Parameters Cmax, Prodrug): 707 ± 500 ng/mL; AUC(0-inf) [3]: 4560 ± 894 ng·h/mL; AUC(0-t) [3]: 4270 ± 902 ng·h/mL; clearance [3]: 7.48 ± 1.32 mL/min/kg; Vd (male, Sprague Dawley, rat, plasma, iv, 2 mg/kg, PRX-P5-006 IV 2 mg/kg, mean, read-out: Vss of PRX-P5-006): 1.88 ± 1.45 L/kg; Cmax (male, Sprague Dawley, rat, plasma, iv, 15 mg/kg, IV 15 mg/kg (footnote *), analyte: prodrug in plasma, mean, read-out: IV PK Parameters Cmax, Prodrug): 16400 ± 7100 ng/mL; AUC (male, Sprague Dawley, rat, IV 2 mg/kg [equivalent to PRX-002 (−)], analyte: prodrug in plasma, mean): 410 ± 301 ng·h/mL; Tmax (male, Sprague Dawley, rat, IV 2 mg/kg [equivalent to PRX-002 (−)], analyte: prodrug in plasma, mean, read-out: IV PK Parameters Tmax, Prodrug): 4.8 min; AUC (male, Sprague Dawley, rat, IV 15 mg/kg (footnote *), analyte: prodrug in plasma, mean): 8060 ± 1760 ng·h/mL; Tmax (male, Sprague Dawley, rat, IV 15 mg/kg (footnote *), analyte: prodrug in plasma, mean, read-out: IV PK Parameters Tmax, Prodrug): 4.8 min; AUC(0-inf) [4]: 5590 ng·h/mL; AUC(0-t) [4]: 5300 ng·h/mL; C0 [4]: 36200 ng/mL; clearance [4]: 5.96 mL/min/kg; Cmax (male, Sprague-Dawley, rat, plasma, iv, 2 mg/kg, PRX-P5-006 IV 2 mg/kg b.w., individual animals, read-out: Cmax of PRX-P5-006): 11200 ng/mL; C0 (male, Sprague-Dawley, rat, plasma, iv, 2 mg/kg, PRX-P5-006 IV 2 mg/kg, mean): 30000 ng/mL; Cmax (male, Sprague-Dawley, rat, plasma, iv, 2 mg/kg, PRX-P5-006 IV 2 mg/kg, mean, read-out: Cmax of PRX-P5-006): 9100 ± 1950 ng/mL; MRT last (male, Sprague-Dawley, rat, plasma, iv, 2 mg/kg, PRX-P5-006 IV 2 mg/kg, mean, read-out: MRTlast of PRX-P5-006): 2.31 ± 1.24 h; half-life (male, Sprague-Dawley, rat, plasma, iv, 2 mg/kg, PRX-P5-006 IV 2 mg/kg, mean, read-out: T1/2 of PRX-P5-006 (converted)): 6.3 ± 3.79 h; Tmax (male, Sprague-Dawley, rat, plasma, PRX-P5-006 IV 2 mg/kg, mean, read-out: Tmax of PRX-P5-006): 4.8 min
